For assay [1], the target named is T1, plasma clot entrapped thrombin (Homo sapiens, UniProt P00734).
T1 construct: Here prothrombin is converted to thrombin; from tissue; host or cells: clot of recalcified platelet-rich human citrate plasma
Nature of the assay: Inhibition of thrombin entrapped in plasma clot (methods M1, M3). Type of assay: biochemical. The note with it: platelet-rich human plasma clot; Tos-Gly-Pro-Arg-pNA substrate. The method, then: The plasma clot was obtained by the recalcification of platelet-rich human citrate plasma and fibrin gel by the coagulation of human fibrinogen with human thrombin Z-D-Arg-Gly-Arg-pNA and Tos Gly-Pro-Arg-pNA were used as substrates for measuring the activity of factor Xa and thrombin (methods M1-M5).
Preparation of Plasma Clot
a) Platelet-rich plasma (PRP) is prepared by centrifuging a 9:1 mixture of human blood and 3.8% aqueous sodium citrate solution (1/2) for 5 minutes at 240×g.
b) 200 μL of PRP are placed in each reaction vessel, 80 μL of 40 mM calcium chloride solution is added and the mixture is left to stand at room temperature for one hour. The plasma clot formed is rinsed mildly with 6×2 ml of 0.9% sodium chloride solution followed by 5 minute sedimentation to remove the dissolved enzymes (factor Xa and thrombin). The thrombin content of the washings is assayed as follows.
c) To 400 μL of washing liquid 100 μL of 1 mM Tos-Gly-Pro-Arg-pNA substrate solution is added and the mixture is incubated for 30 minutes at 37° C., then the reaction is stopped by the addition of 100 μL of 50% acetic acid. 150 μL portions of this mixture are transferred into the wells of the 96-well microtiter plate and the extinction is measured at 405 nm (ELISA READER SLT Laborinstrument GmbH, Austria). When the washing is successful, the extinction is less than 5% of the control
Assay of the Inhibition of Thrombin Entrapped in Plasma Clot
a) Peptide inhibitor solutions are prepared by the process described in Method M2, point a).
b) After draining the washing liquid, 400 μL of the peptide solution (3 parallel samples for each concentration) and 400 μL of buffer, serving as control, are placed on the clot (Method M1) and the mixture is incubated for 5 minutes at 37° C. Thereafter 100 μL of […] Tos-Gly-Pro-Arg-pNA substrate solution is added and incubation at 37° C. is continued for further 30 minutes, then the reaction is stopped by the addition of 100 μL of 50% acetic acid. The operation is continued as described in Method M2, point c).

The next assay concerns the target T2, thrombin (Homo sapiens, UniProt P00734).
T2 construct: The isolated active factor (e.g. thrombin, fXa) and its chromogen or fluorogen peptide-amide substrate are reacted
Nature of the assay: Inhibition of the amidolytic effect of thrombin on Tos-Gly-Pro-Arg-pNA. The format is biochemical. The note with it: Tos-Gly-Pro-Arg-pNA substrate. How it is done:
Anticoagutant activity (i.e. inhibition of the proteolytic reactions in the process) is measured by anticoagulant tests, e.g. by the thrombin time (TT), activated partial thromboplastin time (APTT) and prothrombin time (PT) tests [E. J. W. Bovie et al; Mayo Clinic Laboratory Manual of Hemostasis; W. B. Sanuders Co., Philadelphia (1971)]. Plasma, inhibited in spontaneous coagulation, e.g. citrate-plasma, is made to coagulate and the required coagulation time is measured. Upon the action of anticoagulants the coagulation time is prolonged proportionally to the inhibition of the reaction(s) in the process. The anticoagulant effect can be characterized by the substance concentration required to double the coagulation time compared to the control (IC50). The effect of anticoagulants on individual coagulant proteases is measured by the amidolytic method [R. Lottenberg et al., Methods in Enzymol. 80, 341 (1981); G. Cleason, Blood Coagulation and Fibrinolysis 5, 411 (1994)]. The isolated active factor (e.g. thrombin, fXa) and its chromogen or fluorogen peptide-amide substrate are reacted in the presence or absence of the inhibitor, resp. The enzyme inhibiting action is characterized by the inhibitory constant (IC50) measured during amidolysis.
In the case of D-MePhe-Pro-Arg-H (C1) the concentration doubling the clotting time in the TT, APTT and PT tests amounted to 87, 622 and 2915 nM, resp.

For orientation: IC50 means the concentration at which inhibition is half-maximal. Read a low IC50 as greater potency.

For `N=C(N)NCCC[C@@H](C=O)NC(=O)[C@H]1CCCN1C(=O)C(O)C1CCCCCC1.N=C(N)NCCC[C@@H](C=O)NC(=O)[C@H]1CCCN1C(=O)C(O)C1CCCCCC1.O=S(=O)(O)O` (stereo partly drawn) [Compound 1, D-2-Cycloheptyl-2-hydroxyacetyl-L-prolyl-L-arginine aldehyde hemisulfate], in assay [1], the IC50 was 0.52 µM. In the case of `CN[C@H](Cc1ccccc1)C(=O)N1CCC[C@H]1C(=O)N[C@H](C=O)CCCNC(=N)N` [Compound C1, D-MePhe-Pro-Arg-H], the figures for the IC50 (on thrombin; in assay [1]) were 0.002 µM and 0.38 µM, respectively.

The record behind these values is patent US6121241A, “Anticoagulant peptide aldehyde derivatives” (Gyogyszerkutato Intezet Kft., priority 1996, dated 2000).
